# Measured values as given in patent US20240315989A1 (priority 2021, published 2024).
# “And” between values parts separate entries of the source, which are not always exact repeats. Equal values may be shown once. Read-outs that look alike come from different tables or passages of the source.
# Assays:
# [1] = system: COVID-19 (SARS-CoV-2 infection)
# [2] = system: COVID-19 (SARS-CoV-2 infection); conditions: cited from earlier work
# [3] = system: LPS-induced cytokine production; conditions: human peripheral blood; cited from earlier work
# [4] = depending on formulation; cited from earlier work
# [5] = cited from earlier work
# [6] = Excerpt: All serious and non-serious adverse events were reported to study personnel as per local regulatory requirements. Reportable adverse events included serious adverse events, adverse events resulting in study medication discontinuation, and adverse events assessed as possibly related to study medication.
# Because many patients who would ordinarily have been hospitalized were prevented from admission due to hospital over-capacity during peak waves, the composite endpoint addresses both hospitalization and a proxy for hospitalization, retention in a COVID-19 emergency hospital setting. This region of Brazil implemented hospital-like services in the emergency settings with 50-80 bed units providing services including multiday stays, oxygenation, and mechanical ventilation. […] Key secondary outcomes include viral clearance, time to clinical improvement, number of days with respiratory symptoms, time to hospitalization for any cause or due to COVID-19 progression, all-cause mortality and time to death from any causes, WHO clinical worsening scale score, days in hospital and on ventilator and adverse events, adverse reactions to the study medications, and the proportion of participants who are non-adherent with the study drugs.
# The TOGETHER trial is the largest placebo-controlled trial of COVID-19 interventions in the world. It currently evaluates drugs for pre-hospitalization.
# [7] = system: HEK293T cell lines expressing ACE2 and TMPRSS2; conditions: FIG. 27; cited from earlier work
# [8] = Intent to Treat Analysis, all randomized
# [9] = per protocol, fluvoxamine group
# [10] = Together, N = 741, MedDRA body system
smiles,measurement,setting,value
"COCCCC/C(=N\OCCN)c1ccc(C(F)(F)F)cc1.O=C(O)/C=C\C(=O)O [fluvoxamine, 5-methoxy-4′-(trifluoromethyl)valerophenone-(E)-O-(2-aminoethyl)oxime maleate (1:1)]","Hospitalization or extended emergency room visit due to COVID-19, HR",[1],0.77
same,"Patients with any interaction with a COVID-19 emergency setting, No.",[1],180
same,"Period of hospitalization, estimated treatment effect",[1],1.23
same,"Progression to severe COVID (FDA categorization), % of patients",[1],10.1%
same,"Proportion of primary outcome events, %",[1],3.6%
same,"Time on mechanical ventilator, estimated treatment effect",[1],1.03
same,"Primary outcome events (retention in COVID-19 emergency setting >6 h or transfer to tertiary hospital), No. of patients",[1]; 100 mg,79
same,"Proportion of primary outcome events, %",[1]; 24 h,10.5%
same,Probability of superiority (event rate lower than placebo),[1]; ITT population,99.8%
same,"Primary outcome events, % of patients","[1]; ITT, of 741, 28 days",11%
same,"Primary outcome events, n/N",[1]; [8],(79/741)
same,"Proportion of primary outcome events (retention in COVID-19 emergency setting >6 hours or transfer to tertiary hospital), %",[1]; [8],10.7%
same,"Primary outcome events (retention in a COVID-19 emergency setting or transfer to tertiary hospital due to COVID-19), %","[1]; Intention-to-treat analysis, N 741",(11%)
same,"Primary outcome events, n/N","[1]; Modified Intent to Treat Analysis, received ≥24 hours of study medicine",(78/740)
same,"Primary outcome events (retention in a COVID-19 emergency setting or transfer to tertiary hospital due to COVID-19), %","[1]; Modified intention-to-treat analysis, N 740",(11%)
same,"Primary outcome events, n/N","[1]; Per Protocol, received 80% of study medicine prior to any deterioration",(20/548)
same,"All-cause hospitalization, n/N","[1]; TOGETHER, fluvoxamine group",76/741
same,"Death, intention to treat, %","[1]; TOGETHER, fluvoxamine group",(2%)
same,"Death, intention to treat, n/N","[1]; TOGETHER, fluvoxamine group",17/741
same,"Hospitalized for COVID, n/N","[1]; TOGETHER, fluvoxamine group",75/741
same,Probability that event rate was lower than placebo,[1]; mITT population,99.7%
same,Time to death,"[1]; median, fluvoxamine group",17 days
same,"Death, per protocol, %",[1]; [9],(<1%)
same,"Death, per protocol, n/N",[1]; [9],1/548
same,"Deaths, No.",[1]; per-protocol population,one
same,Reduction in risk of death (mortality),"[1]; per-protocol, took at least 80% of pills",91%
same,"Deaths, No.",[1]; primary intention-to-treat analysis,17
same,Number needed to treat,[1]; primary outcome,20
same,"Hospitalization or extended emergency room visit due to COVID-19, n_Fluvoxamine",[1]; subgroup Age <=50,23
same,"Hospitalization or extended emergency room visit due to COVID-19, HR","[1]; subgroup Age <=50, vs placebo",0.57
same,"Hospitalization or extended emergency room visit due to COVID-19, HR","[1]; subgroup Age >50, vs placebo",0.67
same,"Hospitalization or extended emergency room visit due to COVID-19, n_Fluvoxamine",[1]; subgroup BMI (Kg/m^2) >30,44
same,"Hospitalization or extended emergency room visit due to COVID-19, HR","[1]; subgroup BMI (Kg/m^2) >30, vs placebo",0.64
same,"Hospitalization or extended emergency room visit due to COVID-19, HR","[1]; subgroup Cardiovascular disease N, vs placebo",0.67
same,"Hospitalization or extended emergency room visit due to COVID-19, n_Fluvoxamine",[1]; subgroup Cardiovascular disease Y,0
same,"Hospitalization or extended emergency room visit due to COVID-19, n_Fluvoxamine",[1]; subgroup Chronic kidney disease N,78
same,"Hospitalization or extended emergency room visit due to COVID-19, n_Fluvoxamine",[1]; subgroup Chronic kidney disease Y,1
same,"Hospitalization or extended emergency room visit due to COVID-19, n_Fluvoxamine",[1]; subgroup Sex Female,28
same,"Hospitalization or extended emergency room visit due to COVID-19, n_Fluvoxamine",[1]; subgroup Sex Male,51
same,"Hospitalization or extended emergency room visit due to COVID-19, HR","[1]; subgroup Sex Male, vs placebo",0.80
same,"Hospitalization or extended emergency room visit due to COVID-19, HR","[1]; subgroup Smoking status Current, vs placebo",0.80
same,"Hospitalization or extended emergency room visit due to COVID-19, n_Fluvoxamine",[1]; subgroup Smoking status Former,10
same,"Hospitalization or extended emergency room visit due to COVID-19, HR","[1]; subgroup Smoking status Former, vs placebo",0.46
same,"Hospitalization or extended emergency room visit due to COVID-19, n_Fluvoxamine",[1]; subgroup Time from onset of symptoms 0-3 days,30
same,"Time to death, estimated treatment effect","[1]; unadjusted hazard ratio, fluvoxamine vs placebo",0.80
same,"Death, intention to treat, estimated treatment effect","[1]; unadjusted odds ratio, fluvoxamine vs placebo",0.69
same,Incidence of hospitalization,"[2]; 50 mg twice daily, 14 days",0%
same,"Patients hospitalized, number of 65",[2]; 14 days,no patients and 0 of 65
same,"Patients hospitalized, number of 65","[2]; 14 days, listed as FLV",0/65
same,Persistent residual / ongoing symptoms at 14 days,[2]; Day 14,0%
same,"Persons with persistent residual / ongoing symptoms at 14 days, number of 65",[2]; Day 14,0/65 and zero
same,"Persons with persistent residual / ongoing symptoms at 14 days, number of 65","[2]; Day 14, listed as FLV",0/65
same,LPS-induced cytokine production by human cells,[3],reduce LPS-induced cytokine production
same,half-life,[4],9 to 28 h
same,volume of distribution [V/F],[5]; one-compartment model,928 L
same,Free fraction in plasma,[5]; unbound to plasma proteins,20%
same,"Treatment emergent adverse event Grade 1, %","[6]; TOGETHER, fluvoxamine group",(3%)
same,"Treatment emergent adverse event Grade 1, n/N","[6]; TOGETHER, fluvoxamine group",20/741
same,"Treatment emergent adverse event Grade 2, %","[6]; TOGETHER, fluvoxamine group",(10%)
same,"Treatment emergent adverse event Grade 2, n/N","[6]; TOGETHER, fluvoxamine group",72/741
same,"Treatment emergent adverse event Grade 3, %","[6]; TOGETHER, fluvoxamine group",(5%)
same,"Treatment emergent adverse event Grade 3, n/N","[6]; TOGETHER, fluvoxamine group",38/741
same,"Treatment emergent adverse event Grade 4, %","[6]; TOGETHER, fluvoxamine group",(3%)
same,"Treatment emergent adverse event Grade 4, n/N","[6]; TOGETHER, fluvoxamine group",21/741
same,"Treatment emergent adverse event Grade 5, %","[6]; TOGETHER, fluvoxamine group",(2%)
same,"Treatment emergent adverse event Grade 5, n/N","[6]; TOGETHER, fluvoxamine group",18/741
same,"Cardiac disorders, % of AEs",[6]; [10],(0.6%)
same,"Cardiac disorders, number of AEs",[6]; [10],1
same,"Ear and labyrinth disorders, % of AEs",[6]; [10],(0.6%)
same,"Ear and labyrinth disorders, number of AEs",[6]; [10],1
same,"Gastrointestinal disorders, % of AEs",[6]; [10],(9.2%)
same,"Gastrointestinal disorders, number of AEs",[6]; [10],16
same,"Hepatobiliary disorders, % of AEs",[6]; [10],(0%)
same,"Hepatobiliary disorders, number of AEs",[6]; [10],0
same,"Infections and infestations, % of AEs",[6]; [10],(49%)
same,"Infections and infestations, number of AEs",[6]; [10],85
same,"Metabolism and nutrition disorders, % of AEs",[6]; [10],(2.3%)
same,"Metabolism and nutrition disorders, number of AEs",[6]; [10],4
same,"Musculoskeletal and connective tissue disorders, % of AEs",[6]; [10],(2.3%)
same,"Musculoskeletal and connective tissue disorders, number of AEs",[6]; [10],4
same,"Nervous system disorders, % of AEs",[6]; [10],(1.7%)
same,"Nervous system disorders, number of AEs",[6]; [10],3
same,"Psychiatric disorders, % of AEs",[6]; [10],(2.9%)
same,"Psychiatric disorders, number of AEs",[6]; [10],5
same,"Renal and urinary disorders, % of AEs",[6]; [10],(0.6%)
same,"Renal and urinary disorders, number of AEs",[6]; [10],1
same,"Reproductive system and breast disorders, % of AEs",[6]; [10],(0.6%)
same,"Reproductive system and breast disorders, number of AEs",[6]; [10],1
same,"Respiratory, thoracic and mediastinal disorders, % of AEs",[6]; [10],(6.3%)
same,"Respiratory, thoracic and mediastinal disorders, number of AEs",[6]; [10],11
same,"Skin and subcutaneous tissue disorders, % of AEs",[6]; [10],(0%)
same,"Skin and subcutaneous tissue disorders, number of AEs",[6]; [10],0
same,"Vascular disorders, % of AEs",[6]; [10],(1.1%)
same,"Vascular disorders, number of AEs",[6]; [10],2
same,N individual AEs,"[6]; Together, N = 741 participants",174
same,"Participants who stopped owing to issues of tolerability, No.",[6]; of 741,84
same,HEK293T-ACE2-TMPRSS2 cell IC50,[7],4.579 mg/L
